Results: PMC10740425, “How Deep Learning in Antiviral Molecular Profiling Identified Anti-SARS-CoV-2 Inhibitors” (Biomedicines, 2023)

Tested on: SARS-CoV-2 beta variant
Set-up: species or system BALB/C mice
Conditions: mouse, in vivo, 5 mg/kg

| SMILES | lung viral titers compared to vehicle control |
| --- | --- |
| Cn1cnc([N+](=O)[O-])c1Sc1ncnc2nc[nH]c12 [azathioprine] | did not demonstrate a significant reduction in viral titers |
| O=P(O)(O)OC[C@H]1O[C@@H](n2cnc3c(S)ncnc32)[C@H](O)[C@@H]1O [thioinosinic acid] | approximately tenfold lower |
